The subject of the assay is B16-F1 mouse melanoma cell line. Description: B16 melanin synthesis inhibition assay. Type of assay: cell-based. The conditions noted are these: B16-F1 cells, OD at 410 nm. The procedure:
In this example, a commercially available B16-F1 mouse melanoma cell line from American Tissue Culture Collection, Virginia, USA was employed in a conventional melanin synthesis inhibition assay. The cell culture medium used in the assay is 500 mL of Dulbecco's Modified Eagle's Medium (DMEM), 50 mL Fetal Bovine Serum (FBS), and 5 mL of penicillin-streptomycin liquid. B16-F1 cells that are cultured in this medium and grown to greater than 90% confluency will synthesize melanin. While not intending to be bound by any theory, it is hypothesized that the melanin synthesis is stimulated by the culture medium and/or stress induced by growth to a high confluency. […] Equipment used in the assay include a CO2 incubator, such as a Forma Series Model 3110 by Therma Scientific, Massachusetts, USA; a hemocytometer, such as a Bright Line model by Hauser Scientific, Pennsylvania, USA; and a UV-Visible Spectrum Plate Reader, such as a SpectraMax250 from Molecular Devices, California, USA. […] Day 3: The cells from the T-150 flask are trypsinized, and the concentration of cells is determined using the hemacytometer. […] Read the 96 well plate using the UV-Vis Plate Reader at 410 nm to optically measure the amount of melanin produced between wells that are treated with the pumpkin seed extract and control wells that are not. […] The concentration of test agent needed to provide the IC 50 is recorded.

This is an account of results in patent US20170296457A1, “PRODUCTS AND METHODS FOR TREATING PERIORBITAL DYSCHROMIA” (The Procter & Gamble Company, priority 2016, published 2017).

As for `Oc1ccc(OC2CCCCO2)cc1` (stereo not shown) [Deoxyarbutin], the “Concentration Needed for IC 50 (v/v)” value came to 0.008 v/v.
